# Where two headings read alike, the source gives them in different places.
# Columns and labels:
# [1] = system: PSMA + PC3-PIP and PSMA-PC3-flu flank xenografts; details: no blocker, inhibitors reported in WO2017070482, cited from earlier work
# [2] = system: preclinical models of human prostate cancer (PC); details: Kiess et al., 2016, cited from earlier work
# [3] = system: PSMA+PC3-PIP and PSMA-PC3-flu flank xenografts; experiment: Biodistribution of [125I/211At]2 and 3 with and without co-injection of DCIBzL (Example 6); assay type: in vivo, athymic mice; details: no co-injection
# Description: Final compounds were purified by HPLC.
# [4] = system: PSMA + PC3-PIP and PSMA-PC3-flu flank xenografts; details: without cold blocking agent
# Description: Final compounds were purified by HPLC. […] Organs were harvested 1, 4, and 24 h post-injection (n=5 per time point).
# [5] = system: PiP (tumor) and Flu (tumor); experiment: Biodistribution of [125I]VK-03-03 and [125I]VK-03-03-Lu in mice (Table 9); assay type: in vivo
# [6] = system: PSMA + PC3-PIP and PSMA-PC3-flu flank xenografts; experiment: Biodistribution of At-211 labeled PSMA inhibitors with and without cold blocking agent (Tables 6-8); assay type: in vivo, athymic mice; details: mice
smiles,measurement,setting,value
"O=C(O)CC[C@H](NC(=O)NC(CCCCNC(=O)c1ccc([211At])cc1)C(=O)O)C(=O)O (stereo partly drawn) [YC-I-27, (2S)-2-(3-(1-Carboxy-5-(4-211At-Astatobenzamido)Pentyl)Ureido)-Pentanedioic Acid]","Biodistribution, Blood",[1]; 1 Hour,1.7 ± 0.3 % injected dose/g
same,"Biodistribution, Flu tumor",[1]; 1 Hour,2.2 ± 0.4 % injected dose/g
same,"Biodistribution, PIP tumor",[1]; 1 Hour,17.9 ± 3.0 % injected dose/g
same,"Biodistribution, Spleen",[1]; 1 Hour,29 ± 10 % injected dose/g
same,"Biodistribution, Stomach",[1]; 1 Hour,10.1 ± 1.7 % injected dose/g
same,"Biodistribution, kidney",[1]; 1 Hour,71 ± 12 % injected dose/g
same,"Biodistribution, thyroid",[1]; 1 Hour,3.7 ± 1.1 % injected dose/g
same,"Biodistribution, Blood",[1]; 4 H,1.0 ± 0.1 % injected dose/g
same,"Biodistribution, Flu tumor",[1]; 4 H,1.5 ± 0.2 % injected dose/g
same,"Biodistribution, Spleen",[1]; 4 H,20.3 ± 3.6 % injected dose/g
same,"Biodistribution, kidney",[1]; 4 H,60 ± 12 % injected dose/g
same,"Biodistribution, thyroid",[1]; 4 H,3.8 ± 1.2 % injected dose/g
same,"Biodistribution, Blood",[1]; 21-24 Hour (footnote a),0.5 ± 0.05 % injected dose/g
same,"Biodistribution, Flu tumor",[1]; 21-24 Hour (footnote a),1.2 ± 0.2 % injected dose/g
same,"Biodistribution, PIP tumor",[1]; 21-24 Hour (footnote a),31.1 ± 9.8 % injected dose/g
same,"Biodistribution, Spleen",[1]; 21-24 Hour (footnote a),8.0 ± 2.0 % injected dose/g
same,"Biodistribution, Stomach",[1]; 21-24 Hour (footnote a),9.4 ± 3.0 % injected dose/g
same,"Biodistribution, kidney",[1]; 21-24 Hour (footnote a),57.4 ± 7.4 % injected dose/g
same,"Biodistribution, thyroid",[1]; 21-24 Hour (footnote a),6.5 ± 2.0 % injected dose/g
same,efficacy as PSMA-targeted radiopharmaceutical therapy (RPT) agent,[2],high efficacy
same,renal toxicity,[2]; due to high uptake and long retention in kidney,caused renal failure
O=C(O)CC[C@H](NC(=O)N[C@@H](CCCCN(Cc1ccc([125I])cc1)C(=O)CCCCNC(=O)CN1CCN(CC(=O)O)CCN(CC(=O)O)CCN(CC(=O)O)CC1)C(=O)O)C(=O)O [[^125I]VK-02-90],"retention of radioactivity, lacrimal glands (LG)",[3]; 1h,17.4±6.0 % ID/g
same,"retention of radioactivity, salivary glands (SG)",[3]; 1h,5.1±3.4 % ID/g
same,"retention of radioactivity, kidneys (K)",[3]; 4 h,162±36 % ID/g
same,"retention of radioactivity, kidneys (K)",[3]; 24 h,30.6±14.0 % ID/g
same,"Biodistribution, Blood",[4]; 1 H,1.1 ± 0.3 % injected dose/g
same,"Biodistribution, Flu tumor",[4]; 1 H,1.4 ± 0.6 % injected dose/g
same,"Biodistribution, Kidneys",[4]; 1 H,194 ± 25 % injected dose/g
same,"Biodistribution, Lacrimal glands",[4]; 1 H,17.4 ± 6.0 % injected dose/g
same,"Biodistribution, Pip (tumor)",[4]; 1 H,58 ± 14 % injected dose/g
same,"Biodistribution, Salivary glands",[4]; 1 H,5.1 ± 3.4 % injected dose/g
same,"Biodistribution, Spleen",[4]; 1 H,40.2 ± 16.4 % injected dose/g
same,"Biodistribution, Stomach",[4]; 1 H,1.1 ± 0.3 % injected dose/g
same,"Biodistribution, Blood",[4]; 4 H,0.2 ± 0.03 % injected dose/g
same,"Biodistribution, Flu tumor",[4]; 4 H,0.3 ± 0.06 % injected dose/g
same,"Biodistribution, Kidneys",[4]; 4 H,162 ± 36 % injected dose/g
same,"Biodistribution, Lacrimal glands",[4]; 4 H,1.9 ± 0.45 % injected dose/g
same,"Biodistribution, Pip (tumor)",[4]; 4 H,38 ± 13 % injected dose/g
same,"Biodistribution, Salivary glands",[4]; 4 H,0.7 ± 0.2 % injected dose/g
same,"Biodistribution, Spleen",[4]; 4 H,4.7 ± 1.2 % injected dose/g
same,"Biodistribution, Stomach",[4]; 4 H,0.4 ± 0.2 % injected dose/g
same,"Biodistribution, Blood",[4]; 24 H,0.02 ± 0.01 % injected dose/g
same,"Biodistribution, Flu tumor",[4]; 24 H,0.04 ± 0.02 % injected dose/g
same,"Biodistribution, Kidneys",[4]; 24 H,30.6 ± 14.0 % injected dose/g
same,"Biodistribution, Lacrimal glands",[4]; 24 H,0.5 ± 0.2 % injected dose/g
same,"Biodistribution, Pip (tumor)",[4]; 24 H,51 ± 7 % injected dose/g
same,"Biodistribution, Salivary glands",[4]; 24 H,0.3 ± 0.3 % injected dose/g
same,"Biodistribution, Spleen",[4]; 24 H,0.7 ± 0.4 % injected dose/g
same,"Biodistribution, Stomach",[4]; 24 H,0.05 ± 0.03 % injected dose/g
O=C(O)CC[C@H](NC(=O)N[C@@H](CCCCN(Cc1ccc(Br)cc1)C(=O)CCCCNC(=O)c1cc([125I])cc(C(=O)NCCNC(=O)CN2CCN(CC(=O)O)CCN(CC(=O)O)CCN(CC(=O)O)CC2)c1)C(=O)O)C(=O)O [[^125I]VK-03-03],"Biodistribution Data, Flu (tumor)",[5]; 1 H,2.0 ± 0.7
same,"Biodistribution Data, PiP (tumor)",[5]; 1 H,44.7 ± 12.2
same,"Biodistribution Data, bladder",[5]; 1 H,5.0 ± 2.9
same,"Biodistribution Data, blood",[5]; 1 H,1.6 ± 0.26
same,"Biodistribution Data, fat",[5]; 1 H,3.2 ± 0.7
same,"Biodistribution Data, heart",[5]; 1 H,1.6 ± 0.5
same,"Biodistribution Data, kidney",[5]; 1 H,132 ± 18.5
same,"Biodistribution Data, lacrimal gland",[5]; 1 H,25.4 ± 4.1
same,"Biodistribution Data, large intestine",[5]; 1 H,1.2 ± 0.06
same,"Biodistribution Data, liver",[5]; 1 H,0.9 ± 0.15
same,"Biodistribution Data, lung",[5]; 1 H,4.5 ± 0.6
same,"Biodistribution Data, muscle",[5]; 1 H,1.0 ± 0.2
same,"Biodistribution Data, pancreas",[5]; 1 H,1.8 ± 0.27
same,"Biodistribution Data, salivary gland",[5]; 1 H,5.0 ± 0.86
same,"Biodistribution Data, small intestine",[5]; 1 H,0.76 ± 0.13
same,"Biodistribution Data, spleen",[5]; 1 H,70.0 ± 20.4
same,"Biodistribution Data, stomach",[5]; 1 H,1.0 ± 0.12
same,"Biodistribution Data, Flu (tumor)",[5]; 4 H,1.2 ± 0.28
same,"Biodistribution Data, PiP (tumor)",[5]; 4 H,57.0 ± 15.9
same,"Biodistribution Data, bladder",[5]; 4 H,2.4 ± 0.5
same,"Biodistribution Data, blood",[5]; 4 H,0.49 ± 0.08
same,"Biodistribution Data, fat",[5]; 4 H,4.1 ± 1.5
same,"Biodistribution Data, heart",[5]; 4 H,0.9 ± 0.03
same,"Biodistribution Data, kidney",[5]; 4 H,165 ± 14.4
same,"Biodistribution Data, lacrimal gland",[5]; 4 H,15.8 ± 4.9
same,"Biodistribution Data, large intestine",[5]; 4 H,0.58 ± 0.19
same,"Biodistribution Data, liver",[5]; 4 H,0.4 ± 0.2
same,"Biodistribution Data, lung",[5]; 4 H,2.3 ± 0.3
same,"Biodistribution Data, muscle",[5]; 4 H,0.64 ± 0.22
same,"Biodistribution Data, pancreas",[5]; 4 H,1.5 ± 0.05
same,"Biodistribution Data, salivary gland",[5]; 4 H,3.5 ± 0.4
same,"Biodistribution Data, small intestine",[5]; 4 H,0.37 ± 0.08
same,"Biodistribution Data, spleen",[5]; 4 H,37.4 ± 8.9
same,"Biodistribution Data, stomach",[5]; 4 H,0.95 ± 0.7
same,"Biodistribution Data, Flu (tumor)",[5]; 24 H,0.2 ± 0.09
same,"Biodistribution Data, PiP (tumor)",[5]; 24 H,54.1 ± 6.3
same,"Biodistribution Data, bladder",[5]; 24 H,1.6 ± 0.75
same,"Biodistribution Data, blood",[5]; 24 H,0.09 ± 0.02
same,"Biodistribution Data, fat",[5]; 24 H,0.37 ± 0.28
same,"Biodistribution Data, heart",[5]; 24 H,0.17 ± 0.08
same,"Biodistribution Data, kidney",[5]; 24 H,141 ± 18.3
same,"Biodistribution Data, lacrimal gland",[5]; 24 H,2.6 ± 0.76
same,"Biodistribution Data, large intestine",[5]; 24 H,0.11 ± 0.06
same,"Biodistribution Data, liver",[5]; 24 H,0.09 ± 0.02
same,"Biodistribution Data, lung",[5]; 24 H,0.58 ± 0.2
same,"Biodistribution Data, muscle",[5]; 24 H,0.1 ± 0.05
same,"Biodistribution Data, pancreas",[5]; 24 H,0.26 ± 0.07
same,"Biodistribution Data, salivary gland",[5]; 24 H,0.6 ± 0.16
same,"Biodistribution Data, small intestine",[5]; 24 H,0.08 ± 0.03
same,"Biodistribution Data, spleen",[5]; 24 H,4.9 ± 2.7
same,"Biodistribution Data, stomach",[5]; 24 H,0.18 ± 0.06
same,clearance of radioactivity in the kidneys,"[5]; mouse, in vivo",does not clear over time
same,tumor uptake,"[5]; mouse, in vivo",high and prolonged tumor uptake
O=C(O)CC[C@H](NC(=O)N[C@@H](CCCCN(Cc1ccc([211At])cc1)C(=O)CCCCNC(=O)CN1CCN(CC(=O)O)CCN(CC(=O)O)CCN(CC(=O)O)CC1)C(=O)O)C(=O)O [[^211At]VK-02-90],radioactivity in the stomach,[6],very low
same,stability in-vivo,[6],stable in-vivo

# From patent US11813340B2, “PSMA targeted radiohalogenated urea-polyaminocarboxylates for cancer radiotherapy” (The Johns Hopkins University, priority 2018, dated 2023)
